Experimental data published in US20240245806A1, “TREATMENT OF NEURODEGENERATIVE DISEASE USING CSA- AND INDY-TYPE COMPOUNDS” (BROWN UNIVERSITY, priority 2021, published 2024).
“Also recorded” adds a separate entry of the source.

Legend:
zebrafish larvae [1] = assay: Behavioral screen of 190 FDA-approved drugs in 5-day-old zebrafish larvae (activity, optomotor and acoustic responses); assay type: in vivo, Danio rerio; conditions: 10 μM, 5 dpf larvae, vs DMSO
Description: Zebrafish. The research project has been conducted in accordance with local and federal guidelines for ethical and humane use of animals and has been reviewed and approved by the Brown University Institutional Animal Care and Use Committee. Zebrafish (Danio rerio) embryos were collected and grown to larval stages as previously described. Pelkowski et al., Behav Brain Res 223, 135-144 (2011). Adult wild-type zebrafish are maintained at Brown University as a genetically-diverse outbred strain in a mixed male and female population. […] Embryos and larvae were kept on a 12 hour light/12 hour dark cycle and were randomly assigned to different experimental groups prior to experimental manipulation. The sex of embryos and larvae cannot be determined at such early stages because zebrafish use elusive polygenic factors for sex determination, and both males and females have juvenile ovaries between 2.5 and 4 weeks of development. Zebrafish larvae were imaged at 5 dpf when the larvae display a range of locomotor behaviors and consume nutrients available in the yolk sac. Clift et al., Zebrafish 11, 455-461 (2014). Larvae are approximately 4 mm long at the 5 dpf stage. Pharmacological treatments. Zebrafish larvae were treated with 190 FDA-approved compounds using a Tocris small-molecule library (Tocris Bioscience, Cat. No. 7200). […] Larvae were first treated in a Petri dish for 2 hours, transferred with the treatment solution to white 96-well ProxiPlates (PerkinElmer, 6006290) for 1 hour, and then imaged in the treatment solution for 3 hours. Imaging system. Zebrafish larvae were imaged in an imaging system that holds four 96-well plates for automated analysis of behavior in a 384-well format (FIG. 1). Briefly, the imaging system is housed in a 28.5° C. temperature-controlled cabinet where larvae in white 96-well ProxiPlates are placed onto a glass stage. Above the stage, a high-resolution camera (18-megapixel Canon EOS Rebel T6 with an EF-S 55-250 mm f/4.0-5.6 IS zoom lens) captures an image of the larvae in the four 96-well plates every 6 seconds. The camera is connected to a continuous power supply (Canon ACK-E10 AC Adapter) and controlled by a laptop computer using Canon's Remote Capture software (EOS Utility, version 3), which is included with the camera. Two small speakers (OfficeTec USB Computer Speakers Compact 2.0 System) were attached speaker-side down to the glass stage. Speakers were connected by USB to the laptop computer and set to maximum volume. […] Behavioral assay. Visual and acoustic stimuli are controlled by an automated 3-hour PowerPoint presentation that is shown to the larvae. […] Larvae were not exposed to visual stimuli and acoustic stimuli at the same time. The visual stimuli consisted of a series of moving lines that were red, green or blue. Prior studies have shown that zebrafish larvae will swim in the same direction as moving lines, a behavior that is called an optomotor response or OMR (19, 28). Our previously-developed assays for visually-guided behaviors indicate 5 dpf larvae consistently respond to 1 mm thick lines set 7 mm apart that move 7 mm per 8 seconds downwards or upwards, alternating direction in 10-minute periods (19). Additionally, the presentation included red lines that moved at a faster speed of 7 mm per 0.5 seconds (16× faster). […]

zebrafish larvae [2] = assay: Acute exposure of 5 dpf zebrafish larvae to modulators of calcineurin signaling, automated analysis of behavior; assay type: in vivo, Danio rerio
Description: Zebrafish larvae were treated at 5 dpf with various modulators of calcineurin signaling, starting 3 hours before imaging. The larvae were then imaged for a total of 3 hours using a behavioral assay with various visual and acoustic stimuli (FIG. 6). The behavioral assay started with a 1-hour period without stimuli, followed by 80 minutes with visual stimuli, 10 minutes without visual or acoustic stimuli, and 30 minutes with acoustic stimuli. Values of activity (% move) and position (% up) were averaged in individual larvae during 10-minute periods, for a total of 18 periods. These values were subsequently averaged between larvae in the same treatment group. We examined a total of 10 treatment groups. For clarity, only 3 treatment groups were graphed (FIG. 6), but all 10 treatment groups were analyzed in detail as shown in subsequent figures. […] The assay provides quantitative information on activity, visually-guided behaviors and acoustic startle responses.
To determine if larval zebrafish behavior is affected by modulation of calcineurin signaling, we imaged 5 day-old larvae in the following 10 treatment groups: 10 μM cyclosporine A (CsA), 1 μM tacrolimus (FK506), 5 or 10 μM proINDY, a combination of CsA+5 or 10 μM proINDY, or a combination of FK506+5 or 10 μM proINDY, DMSO as a vehicle control, and 1 μM rapamycin as a control for target specificity. Rapamycin and FK506 are both macrolide immunosuppressants with similar structures, however, rapamycin affects Target of Rapamycin (TOR) signaling instead of calcineurin signaling. Vellanki et al., Front Mol Biosci 7, 588913 (2020). The concentrations of CsA, FK506 and rapamycin were selected based on prior studies in zebrafish embryos and larvae. Clift et al., Behav Brain Res 282, 117-124 (2015). The two concentrations of proINDY, a membrane-permeable form of INDY (inhibitor of DYRK), were selected based on studies in cell lines and Xenopus embryos. Ogawa et al., Nat Commun 1, 86 (2010).
The research project has been conducted in accordance with local and federal guidelines for ethical and humane use of animals and has been reviewed and approved by the Brown University Institutional Animal Care and Use Committee. Zebrafish (Danio rerio) embryos were collected and grown to larval stages as previously described. Thorn et al., Sci Rep 9, 13989 (2019). Adult wild-type zebrafish are maintained at Brown University as a genetically-diverse outbred strain in a mixed male and female population. Zebrafish embryos from 0-3 days post-fertilization (dpf) and zebrafish larvae from 3-5 dpf were maintained at 28.5° C. in 2 L culture trays with egg water, containing 60 mg/L sea salt (Instant Ocean) and 0.25 mg/L methylene blue in deionized water. Embryos and larvae were kept on a 12 hour light/12 hour dark cycle and were randomly assigned to different experimental groups prior to experimental manipulation. The sex of embryos and larvae cannot be determined at such early stages because zebrafish use elusive polygenic factors for sex determination, and both males and females have juvenile ovaries between 2.5 and 4 weeks of development. Zebrafish larvae were imaged at 5 dpf when the larvae display a range of locomotor behaviors and consume nutrients available in the yolk sac. Larvae are approximately 4 mm long at the 5 dpf stage.
Cyclosporine (cyclosporin A, Enzo Life Sciences), FK506 (tacrolimus, Enzo Life Sciences), rapamycin (Santa Cruz Biotechnology) and proINDY (Tocris Bioscience) were diluted in egg water from 1000× stocks dissolved in dimethyl sulfoxide (DMSO). DMSO (1 μl/ml DMSO) was added to the single treatments and the corresponding DMSO concentration was used as a vehicle control for all solutions. Larvae were exposed at 5 dpf to treatment solutions or DMSO for a total of 6 hours. Larvae were first treated in a Petri dish for 2 hours, transferred with the treatment solution to white 96-well ProxiPlates (PerkinElmer, 6006290) for 1 hour, and then imaged in the treatment solution for 3 hours. […]

[3] = test system: zebrafish embryos and larvae; assay: Developmental exposure (2-3, 3-4 or 4-5 dpf) of zebrafish to modulators of calcineurin signaling, behavior imaged at 5 dpf; assay type: in vivo
Description: Zebrafish. Adult wild type zebrafish (Danio rerio) are maintained at Brown University as a genetically-diverse outbred strain in a mixed male and female population. Zebrafish embryos were collected and grown to larval stages as described previously. Thorn et al., Sci Rep 9, 13989 (2019). Embryos from 0-3 days post-fertilization (dpf) and larvae from 3-5 dpf were kept on a 12 hour light/12 hour dark cycle at 28.5° C. in 2 L culture trays with egg water, containing 60 mg/L sea salt (Instant Ocean) and 0.25 mg/L methylene blue in deionized water. Zebrafish embryos and larvae were randomly assigned to different experimental groups prior to experimental manipulation. The sex of embryos and larvae cannot be determined at such early stages because zebrafish use elusive polygenic factors for sex determination, and both males and females have juvenile ovaries between 2.5 and 4 weeks of development. Liew et al., Brief Funct Genomics 13(2), 172-187 (2014). Zebrafish larvae were imaged at 5 dpf when they are approximately 4 mm long, display a range of locomotor behaviors and consume nutrients available in the yolk sac. Clift et al., Zebrafish 11(5), 455-461 (2014).
Pharmacological treatments. Zebrafish embryos and larvae were treated with 10 μM CsA (cyclosporin A, Enzo Life Sciences), 1 μM FK506 (tacrolimus, Enzo Life Sciences), 1 μM rapamycin (Santa Cruz Biotechnology), 5 μM proINDY (Tocris Bioscience) or co-treatments of either 10 μM CsA+5 μM proINDY or 1 μM FK506+5 μM proINDY. […] Clift et al., Behav Brain Res, 282, 117-124 (2015). […] Robinson et al., J Appl Toxicol 37(12), 1438-1447 (2017). […] All administered compounds were diluted in egg water from 1000× stocks dissolved in dimethyl sulfoxide (DMSO). The corresponding DMSO concentration (1 μl DMSO/ml egg water) was used as a vehicle control. Embryos and larvae were treated during one of the following developmental stages: 2-3, 3-4, or 4-5 dpf. The embryos and larvae were treated in 10 cm Petri dishes for 24 hours, rinsed three times with egg water, and then transferred to new Petri dishes with egg water. Larvae that were treated from 4-5 dpf were rinsed and kept in egg water for 3 hours prior to imaging, typically from 10 am to 1 pm. All treatment groups were imaged at 5 dpf in egg water. For imaging, larvae were transferred to white 96-well ProxiPlates (PerkinElmer, 6006290) and were imaged for 3 hours, typically from 1-4 pm (FIG. 12).
Imaging of zebrafish larvae. Zebrafish larvae were imaged in a 384-well imaging system as described previously. Thorn et al., Sci Rep 9, 13989 (2019). Briefly, four 96-well ProxiPlates were placed on a glass stage inside a temperature-controlled cabinet, set at 28.5° C. The upper shelf of the cabinet holds a high-resolution camera (18-megapixel Canon EOS Rebel T6 with an EF-S 55-250 mm f/4.0-5.6 IS zoom lens), connected to a continuous power supply (Canon ACK-E10 AC Adapter) and controlled by a laptop computer. Images are acquired using Canon's Remote Capture software (EOS Utility, version 3), which is included with the camera. Every 6 seconds, the camera acquires a high-resolution image of larvae in the microplates (FIG. 12). Two small speakers (OfficeTec USB Computer Speakers Compact 2.0 System) are located speaker-side down on the glass stage. Speakers were connected by USB to the laptop computer and set to maximum volume (85 dBA).
Behavioral assay. Larval behaviors were imaged for 3 hours, as described previously. Thorn et al., Sci Rep 9, 13989 (2019). […] The PowerPoint started with a light background for 60 minutes without visual or acoustic stimuli, followed by 80 minutes with visual stimuli, 10 minutes without stimuli, and 30 minutes with acoustic stimuli (FIG. 12). Larvae were not exposed to visual stimuli and acoustic stimuli at the same time. The visual stimuli consisted of a series of lines that moved upwards or downwards in the microplates, in a horizontal plane. […]

[4] = 5 μM proINDY, 5 dpf acute, vs DMSO
[5] = 5 dpf acute exposure, vs DMSO, 10 μM CsA, 1 μM FK506, 1 μM rapamycin, proINDY

SMILES | activity (zebrafish larvae [1]) | excitability (E) in response to acoustic stimuli at 1-second intervals (zebrafish larvae [1]) | optomotor response (OMR) (zebrafish larvae [1]) | early activity (first hour of imaging) (zebrafish larvae [2]; [4]) | late activity (period 15) (zebrafish larvae [2]; [4]) | late activity (period 15) (zebrafish larvae [2]; 10 μM proINDY, 5 dpf acute, vs DMSO) | optomotor response (OMR) (zebrafish larvae [2]; 5 dpf acute exposure, vs DMSO) | early activity (first hour of imaging) (zebrafish larvae [2]; [5]) | late activity (period 15) (zebrafish larvae [2]; [5]) | activity (zebrafish larvae [2]; 5 dpf acute exposure, vs DMSO, 10 μM CsA, 1 μM FK506, proINDY 5 or 10 μM) | optomotor response to fast red lines (zebrafish larvae [2]; 5 dpf acute, lines 16x faster) | excitability (acoustic stimuli at 1-second intervals) (zebrafish larvae [2]; 5 dpf acute, vs DMSO) | startle responses to acoustic stimuli at 20-second intervals (zebrafish larvae [2]; 5 dpf acute, vs DMSO) | optomotor response to red lines (zebrafish larvae [2]; 5 dpf acute, vs DMSO, proINDY 5 μM) | larval survival ([3]; developmental exposures to 10 μM proINDY) | OMR RGB ([3]; exposure 2-3 dpf) | late activity (period 15) ([3]; exposure 2-3 dpf) | startle responses (20-second interval) ([3]; exposure 3-4 dpf) | OMR RGB ([3]; exposure 4-5 dpf) | late activity (period 15) ([3]; exposure 4-5 dpf)
CCCCC1=NC2(CCCC2)C(=O)N1Cc1ccc(-c2ccccc2-c2nnn[nH]2)cc1 [Irbesartan] | increased activity | did not increase excitability; also recorded: does not increase excitability | decreased optomotor responses | – | – | – | – | – | – | – | – | – | – | – | – | – | – | – | – | –
Brc1c(NC2=NCCN2)ccc2nccnc12 [UK 14,304] | decrease in activity | – | increase in optomotor responses | – | – | – | – | – | – | – | – | – | – | – | – | – | – | – | – | –
CCN1/C(=C/C(C)=O)Sc2ccc(OC(C)=O)cc21 [proINDY, ProINDY] | – | – | – | reduced early and late activity | reduced early and late activity | reduced late activity only | increased optomotor responses; also recorded: increase in the optomotor response | decrease in early activity | decreased activity | decreased activity; also recorded: decrease in activity | increase in the optomotor response | increased excitability | slightly elevated | increased optomotor response | affected larval survival | decrease in OMR RGB | decreased activity | decrease startle responses | decrease in OMR RGB | increased activity
